Values quoted from earlier work, collected in patent US20130183383A1, “PHARMACEUTICAL COMPOSITIONS FOR CALANOLIDES, THEIR DERIVATIVES AND ANALOGUES, AND PROCESS FOR PRODUCING THE SAME” (Craun Research SDN BHD, priority 2010, published 2013).

Settings: soft gelatin capsules containing 100 mg (+)-calanolide A in oil-based / sesame oil-based vehicle

In the case of `CCCc1cc(=O)oc2c3c(c4c(c12)OC(C)(C)C=C4)O[C@H](C)[C@@H](C)[C@@H]3O` [calanolide A, (+)-Calanolide A], the Bioavailability is listed as “poor bioavailability”.
